“Also recorded” adds a separate entry of the source.
Experiments:
Format in all cases: in vivo, mouse
S1+/− and T1+/− mice = experiment: Rescue of reduced rearing behavior (rearings/min) in the open field; settings: terazosin target dose 0.05 mg/kg body weight/day via drinking water, four weeks, L-DOPA as Sinemet
From the text: FIG. 6. An Active Open Field Activity System (Harvard Apparatus, Holliston, Mass.) was used to monitor total activity, distance traveled/min and number of rearings/min in age matched NT (▴), W2+/−(▪), S1+/−(●) and T1+/−(▾) and T2+/−(♦) mice. The open field for these experiments was a 16 inch by 16 inch enclosure with infrared beams of light aimed to form grids near the floor and 3 inches above the floor of the enclosure. (A) Total activity, or the total number of beam breaks each minute, was determined in two month old mice for a total time of 15 min. (B) A computer algorithm was used to calculate the distance traveled/min during horizontal ambulation by mice of varying age. (C) The number of rearings/minute was determined by electronically tallying the number of times mice of varying age reared onto their hindlimbs, facilitating a greater than 1 sec beam break in the upper grid (3 inches above the floor of the enclosure). (D) Snapshot of an 11 month old S1+/− mouse showing elongation of the torso caused by sprawling and dragging of the hindlimbs. (E) The ability of terazosin and L-DOPA to rescue the reduced number of rearings/min seen in eighteen month old S1+/− and T1+/− mice was tested by administering a target dose of 0.05 mg terazosin/kg body weight/day via the drinking water. After a four week pretreatment with the drug, the number of rearings/min was determined. All error bars in the Figurere present SEM (n>3) and significance in D was determined using analysis of variance with a two-tailed Student's t test (p<0.05).
Receptor overactivity was inhibited in S1+/− and T1+/− mice via treatment with the α1BAR-specific antagonist terazosin. Animals were treated with the drug at a target dose of 0.05 mg/Kg of body weight/day via the drinking water. […] (FIG. 6E).

T2+/− mice [1] = experiment: Percent seizure activity induced by intraperitoneal injection (IPI) stress; settings: T2 mice at 7 months of age, 0.05 mg/Kg body weight/day via drinking water, 4 weeks, 0.05 mg/kg/day
Protocol: (§1) FIG. 7. (A) Sequence of seizure behaviors in a 12 month old T2+/− mouse. 1; behavioral arrest. 2; loss of balance and whole body jerking. 3; forelimb flexion. 4; recovery. (B) Comparison of percent seizure activity induced by open field stress in various lines of mice at 12 months of age. […] Percent seizure activity was then calculated by dividing the number of seizure-positive mice by the total number of mice tested. The total number of mice tested for each case is shown above the respective column in the graph. The ability of terazosin to rescue T2+/− mice from the seizure phenotype was tested by administering a target dose of 0.05 mg/kg body weight/day via the drinking water. After a four week pretreatment with the drug, percent seizure activity was determined. (C) Identical experiment to that described in B, except percent seizure activity was determined in lines of mice at seven months of age that were exposed to intraperitoneal injection (IPI) stress. IPI stress was administered to the mice by intraperitoneal injection of […] of sterile 0.9% NaCl.
Seizures seen in response to this intraperitoneal injection stress (IPI stress) resembled the open field stress-induced event in terms of severity, characteristics and duration. […]

T2+/− mice [2] = experiment: Percent seizure activity induced by open field stress; settings: T2 mice at 12 months of age, 0.05 mg/Kg body weight/day via drinking water, four weeks
Protocol: as §1
The seizure event seen in W2+/−, S 1+/−, T1+/− and T2+/− mice at twelve months of age was evoked by exposure to the open field (i.e. handling-invoked stress) and was characterized by behavioral arrest, facial twitching, loss of balance, forelimb automatism, whole body jerking and hypersalivation. […]

Structure (SMILES) | rearing behavior (number of rearings/min) (S1+/− and T1+/− mice; eighteen month old S1+/− mice) | rearing behavior (number of rearings/min) (S1+/− and T1+/− mice; eighteen month old T1+/− mice) | percent seizure activity (T2+/− mice [1]) | percent seizure activity (T2+/− mice [2])
N[C@@H](Cc1ccc(O)c(O)c1)C(=O)O [L-DOPA] | did not improve the locomotor activity | dramatically reversed the rearing deficit | – | –
COc1cc2nc(N3CCN(C(=O)C4CCCO4)CC3)nc(N)c2cc1OC (stereo not drawn) [terazosin] | partial rescue of the rearing behavior | partial rescue of the rearing behavior | reduced the number of younger T2+/− mice displaying IPI-induced seizures; also recorded: partially reversed the phenotype | partially reversible i.e., fewer events
